In patent publication US6197761A, “17β-2-oxo-tetrahydrofuranyl)-carbothioic acid ester, -carboxylic acid ester and -carboxylic acid amide androstane derivatives” (Glaxo Wellcome Inc., priority 1995, dated 2001) one finds EC50 data, which are given here for nine molecules.

Where only a bound is given, the exact number is not on record here.

This assay addresses T1, Human Glucocorticoid Receptor (Homo sapiens, UniProt P04150).
T1 construct: endogenous in cells; host or cells: HeLa cells (stably transfected with the sPAP reporter under the MMTV LTR)
T1 sequence (P04150 1-777): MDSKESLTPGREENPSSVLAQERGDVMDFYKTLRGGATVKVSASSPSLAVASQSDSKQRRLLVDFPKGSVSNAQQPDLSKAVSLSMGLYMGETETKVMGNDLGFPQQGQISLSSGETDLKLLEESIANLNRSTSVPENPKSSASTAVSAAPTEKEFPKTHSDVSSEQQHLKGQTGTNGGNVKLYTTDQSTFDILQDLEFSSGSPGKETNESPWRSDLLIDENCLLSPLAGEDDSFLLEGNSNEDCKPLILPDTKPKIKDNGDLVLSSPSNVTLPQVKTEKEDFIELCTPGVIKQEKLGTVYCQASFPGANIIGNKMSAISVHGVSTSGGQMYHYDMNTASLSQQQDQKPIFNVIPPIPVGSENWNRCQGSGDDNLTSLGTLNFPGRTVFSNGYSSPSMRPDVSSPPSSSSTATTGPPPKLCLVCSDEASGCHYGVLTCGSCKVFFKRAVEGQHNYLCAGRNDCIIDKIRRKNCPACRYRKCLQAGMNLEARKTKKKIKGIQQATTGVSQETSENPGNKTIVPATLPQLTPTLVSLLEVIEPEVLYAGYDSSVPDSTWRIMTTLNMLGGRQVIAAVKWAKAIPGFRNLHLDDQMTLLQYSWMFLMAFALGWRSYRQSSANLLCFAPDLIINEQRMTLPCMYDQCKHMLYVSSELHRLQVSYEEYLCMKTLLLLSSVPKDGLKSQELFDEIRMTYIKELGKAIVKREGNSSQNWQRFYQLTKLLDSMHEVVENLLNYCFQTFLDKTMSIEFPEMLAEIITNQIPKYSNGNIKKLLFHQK
Briefly: functional in vitro glucocorticoid assay, sPAP reporter under MMTV LTR in transfected Hela cells. It counts as cell-based. As to conditions: sPAP transcription in transfected Hela cells, 72 hours incubation. From the text: The functional assay used was a modification of the method described by T. S Berger et al, of J. of Steroid Biochem. Molec. Biol. 1992, 41 (3-8), 733-738, "Interaction of Glucocorticoid analogues with the Human Glucocorticoid Receptor".
Thus, Hela cells were stably transfected with a detectable reporter gene (secreted placental alkaline phosphatase, sPAP) under the control of a glucocorticoid response promoter (the LTR of the mouse mammary tumour virus, MMTV).
Various concentrations of standard (dexamethasone) or compounds of the invention were incubated with transfected Hela cells for 72 hours. At the end of the incubation, substrate ([…]) for sPAP was added and the product measured by a spectrophotometric method. Increased absorbance reflected increased sPAP transcription and concentration-response lines were constructed such that EC50 -values could be estimated.
Regarding `CCC(=O)O[C@]1(C(=O)SC2CCOC2=O)[C@@H](C)C[C@H]2[C@@H]3CCC4=CC(=O)C=C[C@]4(C)[C@@]3(F)[C@@H](O)C[C@@]21C` (single isomer, unassigned) [Example 7, 9α-Fluoro-11β-hydroxy-16β-methyl-3-oxo-17α-propionyloxy-androsta-1,4-diene-17β-carbothioic acid S-(2-oxo-tetrahydro-furan-3-yl) ester], the EC50 (usually the concentration giving half of the maximal effect) is less than 400 nM.
As to `CC1(C)O[C@@H]2C[C@H]3[C@@H]4C[C@H](F)C5=CC(=O)C=C[C@]5(C)[C@@]4(F)[C@@H](O)C[C@]3(C)[C@]2(C(=O)SC2CCOC2=O)O1` (single isomer, unassigned) [Example 12, 6α,9α-Difluoro-11β-hydroxy-16α,17α-isopropylidenedioxy-3-oxoandrosta-1,4-diene-17β-carbothioic acid S-(2-oxo-tetrahydro-furan-3-yl) ester], the concentration giving a half-maximal response (EC50) was less than 400 nM.
In turn, `CCC[C@@H]1O[C@@H]2C[C@H]3[C@@H]4C[C@H](F)C5=CC(=O)CC[C@]5(C)[C@@]4(F)[C@@H](O)C[C@]3(C)[C@]2(C(=O)SC2CCOC2=O)O1` (single isomer, unassigned) [Example 19, 16α,17α-(R-Butylidenedioxy)-6α,9α-difluoro-11β-hydroxy-3-oxo-androst-4-ene-17β-carbothioic acid S-(2-oxo-tetrahydro-furan-3-yl) ester] displayed an EC50 of less than 400 nM.
On to `CCC(=O)O[C@]1(C(=O)SC2CCOC2=O)[C@H](C)C[C@H]2[C@@H]3C[C@H](F)C4=CC(=O)C=C[C@]4(C)[C@@]3(F)[C@@H](O)C[C@@]21C` (stereo partly drawn) [Example 1, 6α,9α-Difluoro-11β-hydroxy-16α-methyl-3-oxo-17α-propionyloxy-androsta-1,4-diene-17β-carbothioic acid S-(2-oxo-tetrahydro-furan-3-yl) ester], for which the EC50 is less than 400 nM.
`CCC(=O)O[C@]1(C(=O)SC2CCOC2=O)[C@H](C)C[C@H]2[C@@H]3C[C@H](F)C4=CC(=O)CC[C@]4(C)[C@@]3(F)[C@@H](O)C[C@@]21C` (stereo partly drawn) [Example 4]: the EC50 is less than 400 nM.
Consider `CCCC(=O)O[C@]1(C(=O)SC2CCOC2=O)[C@H](C)C[C@H]2[C@@H]3C[C@H](F)C4=CC(=O)C=C[C@]4(C)[C@@]3(F)[C@@H](O)C[C@@]21C` (stereo partly drawn) [Example 5, 17α-Butyryloxy-6α,9α-difluoro-11β-hydroxy-16α-methyl-3-oxo-androsta-1,4-diene-17β-carbothioic acid S-(2-oxo-tetrahydro-furan-3-yl) ester], for which the concentration giving a half-maximal response (EC50) was less than 400 nM.
The figure for `CC(=O)O[C@]1(C(=O)SC2CCOC2=O)[C@H](C)C[C@H]2[C@@H]3C[C@H](F)C4=CC(=O)C=C[C@]4(C)[C@@]3(F)[C@@H](O)C[C@@]21C` (stereo partly drawn) [Example 6, 17α-Acetyloxy-α,9α-difluoro-11β-hydroxy-16α-methyl-3-oxo-androsta-1,4-diene-17β-carbothioic acid S-(2-oxo-tetrahydro-furan-3-yl) ester] is less than 400 nM.
In the case of `CCC(=O)O[C@]1(C(=O)SC2CCC(=O)O2)[C@H](C)C[C@H]2[C@@H]3C[C@H](F)C4=CC(=O)C=C[C@]4(C)[C@@]3(F)[C@@H](O)C[C@@]21C` (stereo partly drawn) [Example 8, 6α,9α-Difluoro-11β-hydroxy-16α-methyl-3-oxo-17α-propionyloxy-androsta-1,4-diene-11β-carbothioic acid S-(5-oxo-tetrahydro-furan-2-yl) ester], the concentration giving a half-maximal response (EC50) is less than 400 nM.
`CCC(=O)O[C@]1(C(=O)SC2COC(=O)C2)[C@H](C)C[C@H]2[C@@H]3C[C@H](F)C4=CC(=O)C=C[C@]4(C)[C@@]3(F)[C@@H](O)C[C@@]21C` (stereo partly drawn) [Example 9, 6α,9α-Difluoro-11α-hydroxy-16α-methyl-3-oxo-17α-propionyloxy-androsta-1,4-diene-17β-carbothioic acid S-(2-oxo-tetrahydro-furan-4-yl) ester] returned an EC50 of less than 400 nM.
